What is called inhibition is the drop in the measured response relative to a control, in per cent. High values mean a strong effect, low ones a weak effect. The IC50 is the concentration that inhibits the measured activity by half. Low values mean inhibition by little substance, high ones a need for much substance.

Here are results for two compounds from patent US20200216432A1, “SULFONAMIDE DERIVATIVES AS STAT3 INHIBITORS FOR THE TREATMENT OF PROLIFERATIVE DISEASES” (King's College London, priority 2017, published 2020).

For series [1], the target named is unphosphorylated STAT3 monomer (uSTAT3) SH2 domain (Homo sapiens, UniProt P40763). Briefly: Fluorescence polarisation assay for the inhibition of STAT3 dimerisation. Type of series: binding. The following applies: 350 nM uSTAT3, 10 nM FAM-pYLPQTV, 100 μM ligand; average of triplicate. For orientation: Fluorescence polarisation rises when a labelled molecule tumbles more slowly, as on binding a larger partner.
Sequence of unphosphorylated STAT3 monomer (uSTAT3) SH2 domain (P40763 whole entry, the tested form may be a part): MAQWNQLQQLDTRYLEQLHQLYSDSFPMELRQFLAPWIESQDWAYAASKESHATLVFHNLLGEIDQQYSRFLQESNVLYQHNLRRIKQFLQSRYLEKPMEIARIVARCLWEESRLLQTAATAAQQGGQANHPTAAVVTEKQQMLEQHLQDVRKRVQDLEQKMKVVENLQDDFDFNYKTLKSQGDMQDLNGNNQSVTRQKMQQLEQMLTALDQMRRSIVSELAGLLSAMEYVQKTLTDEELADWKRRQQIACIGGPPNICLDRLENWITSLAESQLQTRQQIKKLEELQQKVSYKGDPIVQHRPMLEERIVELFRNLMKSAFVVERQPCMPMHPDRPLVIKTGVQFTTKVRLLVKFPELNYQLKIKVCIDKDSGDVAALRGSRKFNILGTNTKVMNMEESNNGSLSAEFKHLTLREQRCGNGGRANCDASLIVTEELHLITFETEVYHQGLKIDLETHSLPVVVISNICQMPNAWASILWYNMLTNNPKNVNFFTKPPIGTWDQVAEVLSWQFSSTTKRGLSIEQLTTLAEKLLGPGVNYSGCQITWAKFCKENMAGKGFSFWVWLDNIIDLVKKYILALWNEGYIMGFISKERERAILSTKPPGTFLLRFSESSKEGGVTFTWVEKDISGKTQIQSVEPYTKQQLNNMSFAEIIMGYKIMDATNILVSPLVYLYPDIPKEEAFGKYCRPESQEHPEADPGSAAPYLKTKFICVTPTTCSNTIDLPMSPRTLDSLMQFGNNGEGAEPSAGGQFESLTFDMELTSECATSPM

Series [2] has as its system MDA-MB-231 breast (STAT3-dependent) cancer cell line. The series can be described thus: MTT cell viability assay, MDA-MB-231. Type of series: cell-based, human. The following applies: MTT; 48 hours exposure (table title). (Formazan colour is commonly taken as a measure of viable cells.)
Series [3] relates to A4 (STAT3-null) cancer cell line. The series can be described thus: MTT cell viability assay, A4. It is filed as cell-based. Conditions: exposure (table title).
Series [4] concerns STAT3 and STAT3-dependent genes. The series can be described thus: RT-PCR expression of STAT3 and STAT3-dependent genes in LPS-stimulated MDA-MB-231 cells. The following applies: 25 μM, 8 hours, MDA-MB-231 stimulated with 500 μg/mL LPS. It is filed as cell-based, human. The protocol:
Effect of Compounds of the Invention on Expression of STAT3 and STAT3-Dependent Genes.
To probe the STAT3-specific cytotoxicity of the mature ligands, the mRNA expression profile of STAT3 and some STAT3 target genes (i.e., bcl-2, cyclin D1, and fascin) were compared to the reference gene GAPDH using a RT-PCR assay. Initially, the MDA-MB-231 cells were stimulated with 500 μg/mL LPS for 24 hours at 37° C. Following this, the compounds were added at 25 μM to the cells and incubated for another 8 hours at 37° C. Finally, PCR was used to determine changes in the gene expression profiles between stimulated-untreated and stimulated-treated cells.

Another series concerns MDA MB 231 tumours. Briefly: Human tumour xenograft study. It is filed as in vivo, SCID Hairless Outbred (SHO) mice. Here is the method:
In Vivo Evaluation of Compound 6 in a Human Tumour Xenograft Study
Therefore, it was decided to carry out a preliminary in vivo efficacy study in mice to evaluate the ability of the molecule to reduce the tumour volume in MDA MB 231 tumour bearing mice. The in vivo tumour xenograft study was carried out in SCID Hairless Outbred (SHO) mice, using an intravenous (IV) dosing regimen.
(§1) MDA-MB231 cells were mixed with matrigel (Geltrex, Gibco) before implantation into mice. For tumour generation, 5 million cells in a 50% matrigel mixture were inoculated subcutaneously on both flanks of 8 weeks old SCID Hairless Outbred (SHO) mice purchased from Charles River (Germany). […] The injections were repeated on day 3 and day 5. The sizes of the tumours were regularly measured using a caliper every 2 days. The tumour size of the treated mice was compared with that of the control group (7 untreated mice).
On the technique in general: Xenograft models place foreign cells or tissue in a host animal.

Series [5] can be described thus: General toxicity and weight of treated xenograft mice. Type of series: in vivo.
From the text: as §1
The days of dosing are indicated by vertical dashed lines.

For series [6], the system named is STAT3. Briefly: STAT3 dimerization inhibition (unpublished results). Conditions: applicants' unpublished results. The source says: herein designated RH-06, was identified as being a novel small molecule inhibitor.
In series [7] the test system is STAT3. The following applies: following IL-6 stimulation; cited from earlier work.
The test system of a further series is STAT3 dependent cells. Conditions: STAT3 dependent cells as compared to STAT3-null cells; cited from earlier work.
The mark [8] stands for this setting: 0.5 mg/Kg IV on days 1, 3 and 5.

Structures are written as SMILES. Entries after “also recorded” stand apart in the source; their conditions may differ.

In [1], `COC(=O)c1ccc(N(C)S(=O)(=O)c2cc(C(=O)NCc3ccc(CN4CCCCC4)cc3)sc2-c2ccnc(N3CCNCC3)c2)cc1` [Compound 6, methyl 4-((N-methyl-2-(2-(piperazin-1-yl)pyridin-4-yl)-5-((4-(piperidin-1-ylmethyl)benzyl)carbamoyl)thiophene)-3-sulfonamido)benzoate] showed an inhibition at 100 µM greater than 50%. The “IC50 (MDA-MB-231)” value in series [2] was “sub-micromolar”. Also, the IC50 in [3] was found to be 73.2 µM. Moreover, in [4], the “Bcl-2 mRNA expression (RT-PCR)” value is reported as “very weak expression”, the “STAT1 mRNA expression (RT-PCR)” value is listed as “without showing any effect”, the “STAT3 mRNA expression (RT-PCR)” value is reported as “Almost no expression” and the “cyclin D1 mRNA expression (RT-PCR)” value is “Almost no expression”. In series [4], the “fascin mRNA expression (RT-PCR)” value is “Almost no expression” and the “house-keeping gene GAPDH mRNA expression (RT-PCR)” value is “without showing any effect”. The “tumour volume compared to the control group” value with MDA MB 231 tumours (0.5 mg/Kg IV (tail vein) on days 1, 3 and 5) is “significant reduction; also recorded: remained low and near the baseline”. Besides, in the series with MDA MB 231 tumours (after dosing stopped on day 5, 0.5 mg/Kg IV), the “tumour volume after dosing was stopped” value is on record as “no significant increase in tumour volume”. In [5] (setting [8]), the “organ changes after sacrifice” value is recorded as “no organ changes were observed”; the signs of toxicity entry was “did not show any signs of toxicity”; the “weight of the treated mice” value is listed as “initially lost some weight post-treatment, but regained the weight after 14 days”. The “survival of treated mice” value in [5] (SCID Hairless Outbred (SHO), mouse, in vivo) is recorded as no less than 21 days.

With `Cc1ccc(-c2sc(C(=O)NCc3cccs3)cc2S(=O)(=O)N2CCCC2)cc1` [RH-06], the inhibition at 100 µM in series [1] is 24.2%. Moreover, the STAT3 dimerization result in the series on STAT3 [6] is “inhibits STAT3 dimerization”. Also, the “phosphorylation of STAT3” value with STAT3 [7] is recorded as “selectively inhibited phosphorylation of STAT3”. Besides, the cytostatic effect entry with STAT3 dependent cells was “selectively cytostatic”.
